Where a name gives a salt, the structure may show the parent alone.
Columns and labels:
[1] = target: PRMT5/MEP50 protein complex (Homo sapiens (Human), UniProt O14744); assay: PRMT5 biochemical assay (3H-SAM methylation of H4(1-21) peptide, filter plate scintillation); conditions: 10 nM PRMT5/MEP50 complex, 200 nM H4(1-21) peptide, 1 uM SAM, 25 minute incubation at room temperature
Outline: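 Human PRMT5/MEP50 complex (10 nM) methylating H4(1-21) peptide (200 nM) with 3H/unlabelled SAM (1 uM final) in pH 8.5 Tris buffer, 25 min at room temperature. Stopped with TCA, 3H-peptide captured on filter plates and scintillation-counted. IC50 from 4-parameter fit.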

[2] = system: A549 lung adenocarcinoma cells; assay: A549 proliferation assay (Cell Titer Glo); type: cell-based; conditions: 7 days with compound, cell viability by Cell Titer Glo (ATP)
Procedure: A549 lung adenocarcinoma cells (American Type Culture Collection) were maintained in DMEM growth media (Life Technologies) supplemented with 10% v/v heat inactivated fetal bovine serum (Sigma) and cultured at 37° C., 5% CO2. Exponentially growing A549 cells were plated in 96-well black tissue culture treated plates (Corning) at a density of […] in a volume of 100 μl culture media and allowed to adhere overnight at 37° C., 5% CO2. The following day, compound plates were prepared by making nine-point 3.3-fold dilutions in DMSO with a top concentration of 10 mM. Compounds were further diluted in culture media and 11 μl was added to the cells (final top assay concentration was 10 μM and DMSO was 0.2%). Cells were incubated with compound at 37° C., 5% CO2 for 7 days with media and compound replacement on day 4. Cell viability was assayed on Day 7 by adding 100 μl Cell Titer Glo (Promega) reagent to the plate to measure the amount of ATP present in the cells. Luminescence was read using the Envision 2104 Multilabel Reader (Perkin Elmer). The 50% inhibitory concentration (IC50) was determined using a 4-parameter fit model normalized to the DMSO control in dose response.

PRMT5/MEP50 protein complex, sequence (O14744 other isoform, or with tags, fused parts or gaps): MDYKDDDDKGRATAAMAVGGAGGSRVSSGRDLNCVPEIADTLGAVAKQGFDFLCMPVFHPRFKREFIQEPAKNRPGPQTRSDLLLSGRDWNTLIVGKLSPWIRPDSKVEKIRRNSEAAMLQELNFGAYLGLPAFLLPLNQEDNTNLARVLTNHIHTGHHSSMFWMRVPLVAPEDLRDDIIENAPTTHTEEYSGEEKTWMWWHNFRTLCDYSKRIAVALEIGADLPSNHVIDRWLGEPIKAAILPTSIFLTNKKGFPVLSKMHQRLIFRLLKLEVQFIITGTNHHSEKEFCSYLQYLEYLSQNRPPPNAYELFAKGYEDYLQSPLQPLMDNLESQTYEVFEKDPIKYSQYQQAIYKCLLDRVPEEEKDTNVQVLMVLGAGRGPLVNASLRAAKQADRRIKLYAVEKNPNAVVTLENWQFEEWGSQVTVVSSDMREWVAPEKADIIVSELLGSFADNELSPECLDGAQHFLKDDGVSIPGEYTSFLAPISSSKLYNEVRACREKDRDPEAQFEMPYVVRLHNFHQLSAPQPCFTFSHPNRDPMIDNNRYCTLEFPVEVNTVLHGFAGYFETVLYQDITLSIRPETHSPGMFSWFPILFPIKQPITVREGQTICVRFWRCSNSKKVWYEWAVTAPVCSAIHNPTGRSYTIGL
PRMT5/MEP50 protein complex, sequence (Q9BQA1 whole entry partner): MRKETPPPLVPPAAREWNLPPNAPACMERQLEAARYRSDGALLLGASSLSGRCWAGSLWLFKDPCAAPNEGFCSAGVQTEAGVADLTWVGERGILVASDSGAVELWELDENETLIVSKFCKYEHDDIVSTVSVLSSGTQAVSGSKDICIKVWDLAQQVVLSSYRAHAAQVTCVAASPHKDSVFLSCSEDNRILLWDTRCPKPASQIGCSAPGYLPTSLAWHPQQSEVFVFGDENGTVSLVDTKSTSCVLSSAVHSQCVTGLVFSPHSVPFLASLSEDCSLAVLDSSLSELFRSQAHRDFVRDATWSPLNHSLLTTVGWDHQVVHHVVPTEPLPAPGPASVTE

Row | IC50 [1] | IC50 ([2]; Homo sapiens, A549, 168 h) | SMILES | further results
1 | 0.003 µM | 0.135 µM | Cc1ncnc2c1ccn2[C@@H]1C[C@H](C(F)c2ccc(F)cc2)[C@@H](O)[C@H]1O (single isomer, unassigned) [Example 22] | 
2 | 0.002 µM |  | Cc1ncnc2c1ccn2[C@@H]1C[C@H](Oc2ccc(F)c3c2CNCC3C)[C@@H](O)[C@H]1O (single isomer, unassigned) [Example 182, hydrochloride] | IC50 ([2]; hydrochloride): 2.18 µM
3 | 0.001 µM |  | Cc1ncnc2c1ccn2[C@@H]1C[C@H](Oc2ccc(F)c3c2CNCC3C)[C@@H](O)[C@H]1O (single isomer, unassigned) [Example 183, hydrochloride] | IC50 ([2]; hydrochloride): 0.136 µM
4 | 0.001 µM | 1.4 µM | Cc1ncnc2c1ccn2[C@@H]1C[C@H](Oc2cccc3c2CNC(C)C3)[C@@H](O)[C@H]1O (single isomer, unassigned) [Example 184] | 
5 | 0.012 µM | 9.53 µM | Cc1ncnc2c1ccn2[C@@H]1C[C@H](Oc2cccc3c2C(N)CCC3)[C@@H](O)[C@H]1O (single isomer, unassigned) [Example 186] | 
6 | 0.004 µM | 6.47 µM | Cc1ncnc2c1ccn2[C@@H]1C[C@H](Oc2cccc3c2CC(N)CO3)[C@@H](O)[C@H]1O (single isomer, unassigned) [Example 188] | 
7 | 0.001 µM | 1.2 µM | Cc1ncnc2c1ccn2[C@@H]1C[C@H](Oc2ccc(F)c3c2C(C)NCC3)[C@@H](O)[C@H]1O (single isomer, unassigned) [Example 213] | 
8 | 0.008 µM |  | Cc1ncnc2c1ccn2[C@@H]1C[C@H](Oc2ccc(F)c3c2C(C)NCC3)[C@@H](O)[C@H]1O (single isomer, unassigned) [Example 214] | IC50 [2]: 1.08 µM
9 | 0.064 µM | 1.07 µM | Cc1ncnc2c1ccn2[C@@H]1C[C@H]([C@](C)(O)c2ccc(F)cc2)[C@@H](O)[C@H]1O [Example 19, (1S,2R,3S,5R)-3-[(1 S)-1-(4-fluorophenyl)-1-hydroxyethyl]-5-(4-methyl-7H-pyrrolo[2,3-d]pyrimidin-7-yl)cyclopentane-1,2-diol] | 
10 | 0.056 µM | 1.67 µM | Nc1ncnc2c1c(F)cn2[C@@H]1C[C@H]([C@H](O)c2ccc(F)cc2)[C@@H](O)[C@H]1O [Example 25, (1R,2S,3R,5R)-3-(4-amino-5-fluoro-7H-pyrrolo[2,3-d]pyrimidin-7-yl)-5-[(S)-(4-fluorophenyl)(hydroxy)methyl]cyclopentane-1,2-diol] | 
11 | 0.005 µM | 0.192 µM | Cc1nc(N)nc2c1ccn2[C@@H]1C[C@H]([C@H](O)c2ccc(F)c(F)c2)[C@@H](O)[C@H]1O [Example 48, (1R,2S,3R,5R)-3-(2-amino-4-methyl-7H-pyrrolo[2,3-d]pyrimidin-7-yl)-5-[(S)-(3,4-difluorophenyl)(hydroxy)methyl]cyclopentane-1,2-diol] | 
12 | 0.006 µM | 0.227 µM | Cc1ncnc2c1ccn2[C@@H]1C[C@H]([C@H](O)c2ccc(Cl)cc2CN)[C@@H](O)[C@H]1O [Example 53, (1S,2R,3R,5R)-3-((S)-(2-(aminomethyl)-4-chlorophenyl)(hydroxy)methyl)-5-(4-methyl-7H-pyrrolo[2,3-d]pyrimidin-7-yl)cyclopentane-1,2-diol] | 
13 | 0.002 µM | 3.17 µM | Cc1ncnc2c1ccn2[C@@H]1C[C@H](Cc2ccc(Cl)cc2CN)[C@@H](O)[C@H]1O [Example 55, (1S,2R,3S,5R)-3-(2-(aminomethyl)-4-chlorobenzyl)-5-(4-methyl-7H-pyrrolo[2,3-d]pyrimidin-7-yl)cyclopentane-1,2-diol] | 
14 | 0.002 µM | 0.378 µM | Cc1ncnc2c1ccn2[C@@H]1C[C@H]([C@H](O)c2cccc3c2CNCC3)[C@@H](O)[C@H]1O [Example 56, (1S,2R,3R,5R)-3-((S)-hydroxy(1,2,3,4-tetrahydroisoquinolin-8-yl)methyl)-5-(4-methyl-7H-pyrrolo[2,3-d]pyrimidin-7-yl)cyclopentane-1,2-diol] | 
15 | 0.004 µM | 6.81 µM | Cc1ncnc2c1ccn2[C@@H]1C[C@H](Oc2ccc(F)cc2CN)[C@@H](O)[C@H]1O [Example 66, (1S,2S,3S,5R)-3-(2-(aminomethyl)-4-fluorophenoxy)-5-(4-methyl-7H-pyrrolo[2,3-d]pyrimidin-7-yl)cyclopentane-1,2-diol] | 
16 | 0.065 µM | 1.12 µM | Cc1ncnc2c1ccn2C1C[C@H](Oc2cccc3ccncc23)[C@@H](O)[C@H]1O (stereo partly drawn) [Example 77, (1S,2S,3S,5R)-3-(isoquinolin-8-yloxy)-5-(4-methyl-7H-pyrrolo[2,3-d]pyrimidin-7-yl)cyclopentane-1,2-diol] | 
17 |  | 0.482 µM | Nc1ncnc2c1c(Br)cn2[C@@H]1C[C@H](Oc2cc(Cl)cc3c2CNCC3)[C@@H](O)[C@H]1O [Example 131] | 
18 | 0.091 µM |  | CCOc1cc(O[C@H]2C[C@@H](n3ccc4c(C)ncnc43)[C@H](O)[C@@H]2O)c2c(c1F)CCNC2 [Example 199, (1S,2S,3S,5R)-3-((6-ethoxy-5-fluoro-1,2,3,4-tetrahydroisoquinolin-8-yl)oxy)-5-(4-methyl-7H-pyrrolo[2,3-d]pyrimidin-7-yl)cyclopentane-1,2-diol] | 
19 |  | 0.14 µM | Cc1ncnc2c1ccn2[C@@H]1C[C@H](Oc2cc(OC(F)F)c(F)c3c2CNCC3)[C@@H](O)[C@H]1O [Example 200, (1S,2S,3S,5R)-3-((6-(difluoromethoxy)-5-fluoro-1,2,3,4-tetrahydroisoquinolin-8-yl)oxy)-5-(4-methyl-7H-pyrrolo[2,3-d]pyrimidin-7-yl)cyclopentane-1,2-diol] | 
20 | 0.31 µM |  | Cc1ncnc2c1ccn2[C@@H]1C[C@H](Oc2cc(OC(C)C)c(F)c3c2CNCC3)[C@@H](O)[C@H]1O [Example 201, (1S,2S,3S,5R)-3-((5-fluoro-6-isopropoxy-1,2,3,4-tetrahydroisoquinolin-8-yl)oxy)-5-(4-methyl-7H-pyrrolo[2,3-d]pyrimidin-7-yl)cyclopentane-1,2-diol] | 
21 |  | 0.248 µM | Cc1ncnc2c1ccn2[C@@H]1C[C@H](Oc2cc(C(F)F)cc3c2CNCCO3)[C@@H](O)[C@H]1O [Example 205, (1S,2S,3S,5R)-3-((8-(difluoromethyl)-2,3,4,5-tetrahydrobenzo[f][1,4]oxazepin-6-yl)oxy)-5-(4-methyl-7H-pyrrolo[2,3-d]pyrimidin-7-yl)cyclopentane-1,2-diol] | 
22 |  | 6.55 µM | Cc1cc2c(c(O[C@H]3C[C@@H](n4ccc5c(C)ncnc54)[C@H](O)[C@@H]3O)c1)CNCCO2 [Example 206, (1S,2S,3S,5R)-3-((8-methyl-2,3,4,5-tetrahydrobenzo[f][1,4]oxazepin-6-yl)oxy)-5-(4-methyl-7H-pyrrolo[2,3-d]pyrimidin-7-yl)cyclopentane-1,2-diol] | 
23 | 0.008 µM |  | Cc1ncnc2c1ccn2[C@@H]1C[C@H](Oc2cccc3c2CN[C@H](C)CO3)[C@@H](O)[C@H]1O [Example 208, (1S,2S,3S,5R)-3-(((R)-3-methyl-2,3,4,5-tetrahydrobenzo[f][1,4]oxazepin-6-yl)oxy)-5-(4-methyl-7H-pyrrolo[2,3-d]pyrimidin-7-yl)cyclopentane-1,2-diol] | 
24 | 0.005 µM |  | Cc1ncnc2c1ccn2[C@@H]1C[C@H](Oc2cccc3c2CNC[C@@H](C)O3)[C@@H](O)[C@H]1O [Example 209, (1S,2S,3S,5R)-3-(((R)-2-methyl-2,3,4,5-tetrahydrobenzo[f][1,4]oxazepin-6-yl)oxy)-5-(4-methyl-7H-pyrrolo[2,3-d]pyrimidin-7-yl)cyclopentane-1,2-diol] | 

Row | SMILES | IC50 [1] | IC50 ([2]; Homo sapiens, A549, 168 h) | further results
25 | Cc1ncnc2c1ccn2[C@@H]1C[C@H]([C@H](O)c2ccc(F)c(F)c2)[C@@H](O)[C@H]1O [Example 3, (1S,2R,3R,5R)-3-[(S)-(3,4-difluorophenyl) (hydroxy)methyl]-5-(4-methyl-7H-pyrrolo[2,3-d]pyrimidin-7-yl)cyclopentane-1,2-diol] | 0.032 µM |  | IC50 ([2]; Homo sapiens, 168 h): 1.1 µM
26 | Cc1ncnc2c1ccn2[C@@H]1C[C@H]([C@H](O)c2ccc(F)c(Cl)c2)[C@@H](O)[C@H]1O [Example 5, (1S,2R,3R,5R)-3-[(S)-(3-chloro-4-fluorophenyl) (hydroxy)methyl]-5-(4-methyl-7H-pyrrolo[2,3-d]pyrimidin-7-yl)cyclopentane-1,2-diol] | 0.025 µM |  | IC50 ([2]; Homo sapiens, 168 h): 0.932 µM
27 | Cc1ncnc2c1ccn2[C@@H]1C[C@H]([C@H](O)c2ccc(Cl)cc2)[C@@H](O)[C@H]1O [Example 11, (1S,2R,3R,5R)-3-[(S)-(4-chlorophenyl)(hydroxy)methyl]-5-(4-methyl-7H-pyrrolo[2,3-d]pyrimidin-7-yl)cyclopentane-1,2-diol] | 0.02 µM |  | IC50 ([2]; Homo sapiens, 168 h): 1.39 µM
28 | Cc1ncnc2c1ccn2[C@@H]1C[C@H]([C@H](O)c2cc(F)c(F)c(F)c2)[C@@H](O)[C@H]1O [Example 13, (1S,2R,3R,5R)-3-[(S)-hydroxy(3,4,5-trifluorophenyl)methyl]-5-(4-methyl-7H-pyrrolo[2,3-d]pyrimidin-7-yl)cyclopentane-1,2-diol] | 0.016 µM |  | IC50 ([2]; Homo sapiens, 168 h): 0.971 µM

Source: patent US10709709B2, “Substituted carbonucleoside derivatives useful as anticancer agents” (Pfizer Inc., priority 2016, dated 2020)
